One block for each compound: values may come before it.
Assays:
[1] = test system: total tau (TAU5) in A152T neurons; assay: Western blot of total tau in A152T neurons; assay type: cell-based, human; conditions: pre-treatment 6 hr then 1 μM QC-01–175 for 18 hr, western blot
From the text: (§1) Cells from individuals carrying the tau risk variant A152T (c.1407G > A; NCBI RefSeq NM_001123066, rs143624519), the autosomal dominant mutation P301L (c.C1907T; NCBI NM_001123066, rs63751273), or age-matched non-mutant WT tau were employed in this study (Figure 2—source data 1). Dermal fibroblasts from the tau-P301L carrier and the healthy individual were generated from a skin biopsy from subjects within the MGH Frontotemporal Disorders Unit as part of the MGH Neurodegeneration Repository. Approval for human subjects’ work was obtained under a Partners/MGH-approved IRB Protocol (#2010P001611/MGH). Fibroblasts were reprogrammed into iPSCs, which were subsequently converted into cortical-enriched neural progenitor cells (NPCs) and differentiated into neuronal cells as previously described ([Almeida et al., 2012]; [Seo et al., 2017]; [Silva et al., 2016]; [Sheridan et al., 2011]) (Silva MC, Manuscript in preparation, 2019). Briefly, cells were cultured in 6-well (Fisher Scientific Corning, Pittsburgh, PA) or 96-well (Fisher Scientific Corning) plates coated with poly-ornithine (20 μg/mL in water, Sigma, St. Louis, MO) and laminin (5 μg/mL in PBS, Sigma) (POL-coated), in DMEM/F12-B27 media [70% DMEM (Gibco, Carlsbad, CA), 30% Ham’s-F12 (Fisher Scientific Corning), 2% B27 (Gibco), 1% penicillin-streptomycin (Gibco)]. Media was supplemented with EGF (20 ng/mL, Sigma), FGF (20 ng/mL, Stemgent, Cambridge, MA) and heparin (5 μg/mL, Sigma), to promote NPC proliferation and expansion. The growth factors were withdrawn to promote neural differentiation for 6 to 8 weeks, with half media change two times per week. Cell lines’ identity was authenticated by SANGER sequencing, karyotyping and ACGH analysis at different stages of culture maintenance from iPSC to NPC. All working cell lines tested negative for mycoplasma contamination.
(§2) Compound treatment in six-well plates was performed in 2 mL media volume by removing 1 mL of conditioned media from the culture and adding 1 mL of new media pre-mixed with the compound at the appropriate 2X concentration, followed by incubation at 37°C for the designated period of time. Compound treatment in 96-well plates was performed in 100 μL media volume by adding compound directly to each well, followed by incubation at 37°C. When testing the effect of drug pre-treatment, the first compound was added as described above for the period of time needed, and then QC-01–175 was added directly onto the media without media exchange.
(§3) Neurons differentiated in six-well plates for 6 weeks were washed and collected in PBS, lysed in RIPA buffer (Boston Bio-Products, Boston, MA) supplemented with 2% SDS (Sigma), protease inhibitors cocktail (Roche Complete Mini tablets, Mannheim, Germany), and phosphatase inhibitors cocktail (Sigma), followed by water sonication (Bransonic Ultrasonic Baths, Thomas Scientific, Danbury, CT) and 20,000 g centrifugation for 20 min. Supernatants were transferred to new tubes and total protein concentration was quantified with the Pierce BCA Protein Assay Kit (ThermoFisher Scientific, Carlsbad, CA). Human recombinant tau protein ladder was purchased from Sigma. Electrophoresis were performed with the Novex NuPAGE SDS-PAGE Gel System (Invitrogen, Carlsbad, CA), by running 10 μg of total protein (pre-boiled in SDS-DTT loading buffer, NEB, Ipswich, MA) on pre-cast SDS-PAGE. Gels were transferred onto PVDF membranes (EMD Millipore) using standard procedures. Membranes were blocked in 5% BSA (Sigma) in Tris-buffered saline with Tween-20 (TBST/Biorad, Hercules, CA) for 2 hr, incubated overnight with primary antibody (see antibody section) at 4°C, followed by corresponding HRP-linked secondary antibody incubation (Cell Signaling Technology, Danvers, MA). […]

[2] = molecular target: T1, recombinant human tau Tau-441(WT) (Homo sapiens, UniProt P10636); assay: Bio-layer interferometry (BLI) biosensor assay, tau WT; assay type: binding; conditions: BLI steady-state analysis, immobilized biotinylated tau; Figure 1—figure supplement 1B
T1 construct: biotin (chemical label, NHS-PEG4); purchased SignalChem T08-54BN; host or cells: E. coli
T1 sequence (P10636 1-441 isoform P10636-8): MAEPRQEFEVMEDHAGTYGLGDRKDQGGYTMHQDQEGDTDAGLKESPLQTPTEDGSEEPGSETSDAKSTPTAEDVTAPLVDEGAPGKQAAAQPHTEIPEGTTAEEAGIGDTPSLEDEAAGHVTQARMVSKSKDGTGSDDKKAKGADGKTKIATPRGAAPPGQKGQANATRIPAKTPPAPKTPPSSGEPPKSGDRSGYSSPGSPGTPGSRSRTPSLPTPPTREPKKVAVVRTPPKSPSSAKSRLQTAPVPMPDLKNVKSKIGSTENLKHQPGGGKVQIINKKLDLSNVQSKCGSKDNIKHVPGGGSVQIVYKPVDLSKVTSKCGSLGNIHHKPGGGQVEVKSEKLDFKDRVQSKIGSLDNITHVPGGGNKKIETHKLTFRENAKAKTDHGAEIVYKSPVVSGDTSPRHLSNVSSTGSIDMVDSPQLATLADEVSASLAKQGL
Description: (§4) BLI was performed in the Octet Red384 instrument (ForteBio, Fremont CA, USA) with 1X PBS and 0.01% Brij-35 as the assay buffer. […] The biotinylated protein samples for BLI were purified in 1X phosphate buffered saline (PBS). Streptavidin (SA) sensors were used to measure the biophysical interaction between the small molecules and biotinylated tau. Prior to the initiation of BLI, the SA sensors were soaked by dipping in 200 μL of assay buffer in a 96-well Greiner Bio-One Black flat bottom plate (Greiner, Monroe NC, USA Cat.655209). The assay was performed in 80 μL volume in Greiner Bio-One 384-well black flat bottom PP plates (Greiner, Cat.781209) with an initial baseline step, followed by loading of 250 nM biotinylated tau protein. The small molecules samples and recombinant proteins were arranged in the 384-well plate according to a plate map recommended for the eight-channel mode kinetic analysis, where the sensors move from low to high concentration of small molecule samples. Subsequent steps included a second baseline (120 s), followed by association (240 s) and dissociation (240 s) cycles. […] When Req option is selected, Fortebio’s software calculates affinity constants based on the Req values determined from the curve fits. […]

[3] = molecular target: T2, recombinant human tau Tau-441(P301L) (Homo sapiens, UniProt P10636, P618L); assay: Bio-layer interferometry (BLI) biosensor assay, tau P301L; assay type: binding; conditions: BLI steady-state analysis, immobilized biotinylated tau; Figure 1—figure supplement 1B
T2 construct: biotin (chemical label, NHS-PEG4); purchased SignalChem T08-56FN; host or cells: E. coli
T2 sequence (P10636 1-441 isoform P10636-8 P301L): as the sequence (P10636 1-441 isoform P10636-8) above, with P301L counted along it
Description: as §4

[4] = molecular target: T3, recombinant human tau Tau-441(A152T) (Homo sapiens, UniProt P10636, A469T); assay: Bio-layer interferometry (BLI) biosensor assay, tau A152T; assay type: binding; conditions: BLI steady-state analysis, immobilized biotinylated tau; Figure 1—figure supplement 1B; read-out: KD, Tau A152T
T3 construct: biotin (chemical label, NHS-PEG4); purchased SignalChem T08-56VN; host or cells: E. coli
T3 sequence (P10636 1-441 isoform P10636-8 A152T): as the sequence (P10636 1-441 isoform P10636-8) above, with A152T counted along it
Description: BLI was performed in the Octet Red384 instrument (ForteBio, Fremont CA, USA) with 1X PBS and 0.01% Brij-35 as the assay buffer. […] The biotinylated protein samples for BLI were purified in 1X phosphate buffered saline (PBS). Streptavidin (SA) sensors were used to measure the biophysical interaction between the small molecules and biotinylated tau. Prior to the initiation of BLI, the SA sensors were soaked by dipping in 200 μL of assay buffer in a 96-well Greiner Bio-One Black flat bottom plate (Greiner, Monroe NC, USA Cat.655209). The assay was performed in 80 μL volume in Greiner Bio-One 384-well black flat bottom PP plates (Greiner, Cat.781209) with an initial baseline step, followed by loading of 250 nM biotinylated tau protein. The small molecules samples and recombinant proteins were arranged in the 384-well plate according to a plate map recommended for the eight-channel mode kinetic analysis, where the sensors move from low to high concentration of small molecule samples. Subsequent steps included a second baseline (120 s), followed by association (240 s) and dissociation (240 s) cycles. […] Data analysis was performed using Data Acquisition HT 11.0 software following reference subtraction (an average of two sensors with DMSO) using a 1:1 binding model and an individual fit of each replicate. The equilibrium dissociation constant (KD) was estimated using data at equilibrium from each available small molecule concentration with steady-state analysis. The instrument manufacturer (Fortebio, article #137) recommends the steady state option for analyzing interactions that are either low affinity or very fast on-and-off affinity rates. […] When Req option is selected, Fortebio’s software calculates affinity constants based on the Req values determined from the curve fits. In the steady-state analysis, Req is plotted against the small molecule concentration to infer the Rmax. […] As per the instrument manufacturer’s instructions, if all curves have reached equilibrium, these two sets of values correspond to ‘Response,’ and Req values should match. […]

monoamine oxidase (MAO) = assay: Monoamine oxidase (MAO-Glo) activity assay; assay type: biochemical; conditions: four parameter fit; for IC50: 60-min reaction, read-out: MAO Dose Response IC50
Description: The Monoamine oxidase (MAO) activity measurements were performed using a MAO-Glo assay kit (Promega, Madison, WI), in a 384-well plate (Proxiplate 384 Plus, Perkin Elmer, Waltham, MA) with the miniaturization of final assay volume to 20 µL, as per the manufacturer’s instructions. In brief, MAO reactions were terminated after a 60-min enzymatic reaction, by the addition of reconstituted Luciferin Detection Reagent. Following a 20-min incubation with the detection reagent, the luminescence was measured using a multi-label plate reader (Envision, Perkin Elmer). IC50 values were estimated by fitting percentage inhibition vs. compound concentration in a variable slope (four parameter) fit.

[5] = test system: P-tau S396 in A152T neurons; assay: Western blot of P-tau S396 in A152T neurons; assay type: cell-based, human; conditions: 24 hr, across biological replicates
From the text: as §1, §2, §3

Structure (SMILES): CC(C)C[C@H](NC(=O)[C@H](CCc1ccccc1)NC(=O)CN1CCOCC1)C(=O)N[C@@H](Cc1ccccc1)C(=O)N[C@@H](CC(C)C)C(=O)[C@@]1(C)CO1 [carfilzomib, Carfilzomib, reference compound]
- effect of 6 hr pre-treatment on QC-01–175-mediated tau degradation (total tau and P-tau S396) [1]: caused a concentration-dependent rescue of the effect of QC-01–175

Structure (SMILES): NS(=O)(=O)OC[C@@H]1C[C@@H](n2ccc3c(N[C@H]4CCc5ccccc54)ncnc32)C[C@@H]1O [MLN4924, reference compound]
- effect of 6 hr pre-treatment on QC-01–175-mediated tau degradation (total tau and P-tau S396) [1]: caused a concentration-dependent rescue of the effect of QC-01–175

Structure (SMILES): CO/C1=C\C(C)=C\[C@@H](C)[C@@H](O)[C@@H](C)C/C(C)=C/C=C/[C@H](OC)[C@@H]([C@@H](C)[C@@H](O)[C@H](C)[C@@]2(O)C[C@@H](O)[C@H](C)[C@@H](C(C)C)O2)OC1=O [bafilomycin A1, Bafilomycin A1, reference compound]
- effect of 6 hr pre-treatment on QC-01–175-mediated tau degradation (total tau and P-tau S396) [1]: did not reverse the degrader effect and further promoted tau clearance

- Kd [2]: 22 ± 2.78 µM
- Kd [3]: 8.8 ± 1.11 µM
- Kd [4]: 22.1 ± 3.26 µM
Structure (SMILES): COc1cc(OCc2ccccn2)ccc1/C=C/c1cc(/C=C/c2ccc3cc[nH]c3c2)n[nH]1 [PE859, reference compound]

- IC50 (monoamine oxidase (MAO)): > 50 µM
- MAO Dose Response Hill Slope (monoamine oxidase (MAO)): 0.108
Structure (SMILES): Nc1cccc2c1C(=O)N(C1CCC(=O)NC1=O)C2=O (centres unmarked) [Pomalidomide]

Structure (SMILES): Nc1cccc2c1CN(C1CCC(=O)NC1=O)C2=O (centres unmarked) [lenalidomide, Lenalidomide, reference compound]
- up-regulation of P-tau S396 ([5]; 1 μM): ~ 30%
- up-regulation of P-tau S396 ([5]; 10 μM): ~90%
- effect of 6 hr pre-treatment on QC-01–175-mediated tau degradation (total tau and P-tau S396) [1]: reversed QC-01–175-mediated tau degradation in a concentration-dependent manner

Structure (SMILES): N[C@@H]1C[C@H]1c1ccccc1 (racemic) [Parnate, Tranylcypromine]
- IC50 (monoamine oxidase (MAO)): 0.057 µM
- MAO Dose Response Hill Slope (monoamine oxidase (MAO)): 1.504
- MAO Dose Response Log IC50 (monoamine oxidase (MAO)): -1.240
